Experiments:
[1] = target: PHD2 enzyme (residues 181-417) (Homo sapiens (Human), UniProt Q9GZT9); experiment: Inhibition of PHD enzyme (LC/MS peptide hydroxylation assay); assay type: biochemical; settings: PHD2 (residues 181-417) 5 nM, 60 min pre-incubation; -log(IC50), IC50 molar
How it was run: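 PHD2 (5 nM final) preincubated with inhibitor 60 min at RT in 50 mM HEPES, 50 mM KCl, 0.5 mM TCEP, 2 uM FeCl2, 0.1 mg/ml BSA, pH 7.3. Reaction started with biotin-peptide (1 uM), 2-oxoglutarate (2 uM), ascorbate (1 mM), quenched at 60 min; hydroxylated product by LC/MS, reported as pIC50.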

[2] = test system: HIF1a protein in H9c2 rat cardiomyocytes; experiment: Cell-based HIF-alpha stabilization assay (inhibition of PHD in cells); settings: Rattus norvegicus, H9c2, 24 h, 24 hrs compound incubation, HIF1a protein by ELISA, read-out: Inhibition of PHD in cells (pEC50) (converted)
How it was run: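 Rat H9c2 cardiomyocytes, cultured 24 h, were treated 24 h with an 11-point serial dilution of compound. HIF1a in whole-cell lysates was quantified by ELISA as % of the maximal desferrioxamine response. EC50 came from curve fitting; EC50pos is the concentration reaching 50% of the desferrioxamine maximum.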

Sequence of PHD2 enzyme (residues 181-417) (Q9GZT9 181-417): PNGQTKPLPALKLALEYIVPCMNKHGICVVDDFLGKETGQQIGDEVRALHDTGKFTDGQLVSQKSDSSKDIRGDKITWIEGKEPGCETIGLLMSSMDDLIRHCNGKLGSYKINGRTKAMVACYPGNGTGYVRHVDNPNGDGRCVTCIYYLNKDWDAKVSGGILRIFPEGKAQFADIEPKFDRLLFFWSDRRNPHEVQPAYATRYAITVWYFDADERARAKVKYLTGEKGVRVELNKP

SMILES	PHD Inhibition (pIC50) [1]	EC50 [2]
Cc1cc(C#N)ccc1-c1cnn(-c2ccc(C(=O)N[C@H]3CC[C@H](C)CC3)cn2)c1O [Example 183, 6-(4-(4-cyano-2-methylphenyl)-5-hydroxy-1H-pyrazol-1-yl)-N-((1r,4r)-4-methylcyclohexyl)nicotinamide]	7.9	646 nM
COc1cc(-c2cnn(-c3ccc(C(=O)NCCC(C)OC)cn3)c2O)ccn1 (stereo not drawn) [Example 50, 6-(5-hydroxy-4-(2-methoxypyridin-4-yl)-1H-pyrazol-1-yl)-N-(3-methoxybutyl)nicotinamide]	8.1	871 nM
COCCC(C)(C)NC(=O)c1ccc(-n2ncc(-c3ccc(C#N)cc3C)c2O)nc1 [Example 67, 6-(4-(4-cyano-2-methylphenyl)-5-hydroxy-1H-pyrazol-1-yl)-N-(4-methoxy-2-methylbutan-2-yl)nicotinamide]	7.11	219 nM
Cc1cc(C#N)ccc1-c1cnn(-c2ccc(C(=O)NCCCn3cccn3)cn2)c1O [Example 141]	8.3	407 nM
N#Cc1ccc(-c2cnn(-c3ccc(C(=O)NCC4CCCO4)cn3)c2O)cc1 (stereo not drawn) [Example 153, 6-(4-(4-cyanophenyl)-5-hydroxy-1H-pyrazol-1-yl)-N-((tetrahydrofuran-2-yl)methyl)nicotinamide]	7.57	1380 nM
CN1CC(NC(=O)c2ccc(-n3ncc(-c4ccc(C#N)cc4)c3O)nc2)C1 [Example 76, 6-(4-(4-cyanophenyl)-5-hydroxy-1H-pyrazol-1-yl)-N-(1-methylazetidin-3-yl)nicotinamide]	6.68	3090 nM
N#Cc1ccc(-c2cnn(-c3ccc(C(=O)NCc4ccccc4)cn3)c2O)cc1F [Example 188, N-benzyl-6-(4-(4-cyano-3-fluorophenyl)-5-hydroxy-1H-pyrazol-1-yl)nicotinamide]	7.3	5250 nM
COc1cc(-c2cnn(-c3ccc(C(=O)NC(C)C)cn3)c2O)ccn1 [Example 5, 6-(5-hydroxy-4-(2-methoxypyridin-4-yl)-1H-pyrazol-1-yl)-N-isopropylnicotinamide]	7.01	562 nM
N#Cc1ccc(-c2cnn(-c3ccc(C(=O)N[C@H]4CC[C@@H](O)C4)cn3)c2O)cc1 [Example 258, 6-(4-(4-cyanophenyl)-5-hydroxy-1H-pyrazol-1-yl)-N-((1s,3r)-3-hydroxycyclopentyl)nicotinamide]	7.44	813 nM
Cc1cc(C#N)ccc1-c1cnn(-c2ccc(C(=O)NCCCN(C)C)cn2)c1O [Example 95, 6-(4-(4-cyano-2-methylphenyl)-5-hydroxy-1H-pyrazol-1-yl)-N-(3-(dimethylamino)propyl)nicotinamide]	7.9	83.2 nM
N#Cc1ccc(-c2cnn(-c3ccc(C(=O)N[C@H]4CC[C@H](O)CC4)cn3)c2O)cc1 [Example 165, 6-(4-(4-cyanophenyl)-5-hydroxy-1H-pyrazol-1-yl)-N-((1r,4r)-4-hydroxycyclohexyl)nicotinamide]	7.68	251 nM
COCCC1(NC(=O)c2ccc(-n3ncc(-c4ccc(C#N)cc4)c3O)nc2)CC1 [Example 208, 6-(4-(4-cyanophenyl)-5-hydroxy-1H-pyrazol-1-yl)-N-(1-(2-methoxyethyl)cyclopropyl)nicotinamide]	7.8	269 nM
CN(C)CC(C)(C)NC(=O)c1ccc(-n2ncc(-c3ccc(C#N)cc3)c2O)nc1 [Example 109, 6-(4-(4-cyanophenyl)-5-hydroxy-1H-pyrazol-1-yl)-N-(1-(dimethylamino)-2-methylpropan-2-yl)nicotinamide]	7.7	1200 nM
Cc1cc(C#N)ccc1-c1cnn(-c2ccc(C(=O)NC3CN(C)C3)cn2)c1O [Example 186, 6-(4-(4-cyano-2-methylphenyl)-5-hydroxy-1H-pyrazol-1-yl)-N-(1-methylazetidin-3-yl)nicotinamide]	7.8	295 nM
CC1(CNC(=O)c2ccc(-n3ncc(-c4ccc(C#N)cc4)c3O)nc2)COC1 [Example 261, 6-(4-(4-cyanophenyl)-5-hydroxy-1H-pyrazol-1-yl)-N-((3-methyloxetan-3-yl)methyl)nicotinamide]	7.39	1120 nM

Continued, in another order:

PHD Inhibition (pIC50) [1]	SMILES	EC50 [2]
7.75	Cc1cc(C#N)ccc1-c1cnn(-c2ccc(C(=O)N3CCC4(CCN(C)C4)C3)cn2)c1O (stereo not drawn) [Example 346, 4-(5-hydroxy-1-(5-(7-methyl-2,7-diazaspiro[4.4]nonane-2-carbonyl)pyridin-2-yl)-1H-pyrazol-4-yl)-3-methylbenzonitrile]	372 nM
8.31	Cc1c(-c2cnn(-c3ccc(C(=O)N4CC[C@@H](N(C)C)C4)cn3)c2O)ccc(C#N)c1F [Example 317, (R)-4-(1-(5-(3-(dimethylamino)pyrrolidine-1-carbonyl)pyridin-2-yl)-5-hydroxy-1H-pyrazol-4-yl)-2-fluoro-3-methylbenzonitrile]	676 nM
8.29	CCN1CCN(C(=O)c2ccc(-n3ncc(-c4cc(F)c(C#N)cc4C)c3O)nc2)CC1 [Example 306, 4-(1-(5-(4-ethylpiperazine-1-carbonyl)pyridin-2-yl)-5-hydroxy-1H-pyrazol-4-yl)-2-fluoro-5-methylbenzonitrile]	4570 nM
8.17	Cc1cc(C#N)ccc1-c1cnn(-c2ccc(C(=O)N3CCN(CC4CC4)CC3)cn2)c1O [Example 418, 4-(1-(5-(4-(cyclopropylmethyl)piperazine-1-carbonyl)pyridin-2-yl)-5-hydroxy-1H-pyrazol-4-yl)-3-methylbenzonitrile]	1170 nM
8.47	Cc1c(-c2cnn(-c3ccc(C(=O)N4CCC[C@H](N(C)CC(F)(F)F)C4)cn3)c2O)ccc(C#N)c1F [Example 332, (S)-2-fluoro-4-(5-hydroxy-1-(5-(3-(methyl(2,2,2-trifluoroethyl)amino)piperidine-1-carbonyl)pyridin-2-yl)-1H-pyrazol-4-yl)-3-methylbenzonitrile]	759 nM
7.88	Cc1cc(C#N)ccc1-c1cnn(-c2ccc(C(=O)N(C)CCCN3CCCCC3)cn2)c1O [Example 303, 6-(4-(4-cyano-2-methylphenyl)-5-hydroxy-1H-pyrazol-1-yl)-N-methyl-N-(3-(piperidin-1-yl)propyl)nicotinamide]	282 nM
7.74	CCN1CCC(N(C)C(=O)c2ccc(-n3ncc(-c4ccc(C#N)cc4C)c3O)nc2)CC1 [Example 425, 6-(4-(4-cyano-2-methylphenyl)-5-hydroxy-1H-pyrazol-1-yl)-N-(1-ethylpiperidin-4-yl)-N-methylnicotinamide]	776 nM
8.07	COCCCNC(=O)c1ccc(-n2ncc(-c3ccc(C#N)cc3COC)c2O)nc1 [Example 410, 6-(4-(4-cyano-2-(methoxymethyl)phenyl)-5-hydroxy-1H-pyrazol-1-yl)-N-(3-methoxypropyl)nicotinamide]	513 nM
8.33	Cc1c(-c2cnn(-c3ccc(C(=O)N4CCCN(C5CC5)CC4)cn3)c2O)ccc(C#N)c1F [Example 323, 4-(1-(5-(4-cyclopropyl-1,4-diazepane-1-carbonyl)pyridin-2-yl)-5-hydroxy-1H-pyrazol-4-yl)-2-fluoro-3-methylbenzonitrile]	1820 nM
8.47	Cc1c(-c2cnn(-c3ccc(C(=O)N4CCOCC4)cn3)c2O)ccc(C#N)c1F [Example 327, 2-fluoro-4-(5-hydroxy-1-(5-(morpholine-4-carbonyl)pyridin-2-yl)-1H-pyrazol-4-yl)-3-methylbenzonitrile]	589 nM
8.29	Cc1cc(C#N)ccc1-c1cnn(-c2ccc(C(=O)N3CCC(N4CCOCC4)C3)cn2)c1O (stereo not drawn) [Example 347, 4-(5-hydroxy-1-(5-(3-morpholinopyrrolidine-1-carbonyl)pyridin-2-yl)-1H-pyrazol-4-yl)-3-methylbenzonitrile]	631 nM
7.83	COCCN1CCC(N(C)C(=O)c2ccc(-n3ncc(-c4ccc(C#N)cc4C)c3O)nc2)CC1 [Example 427, 6-(4-(4-cyano-2-methylphenyl)-5-hydroxy-1H-pyrazol-1-yl)-N-(1-(2-methoxyethyl)piperidin-4-yl)-N-methylnicotinamide]	646 nM
6.73	N#Cc1ccc(-c2cnn(-c3ccc(C(=O)N4CCC[C@@H]4CN4CCCC4)cn3)c2O)cc1 [Example 364, (R)-4-(5-hydroxy-1-(5-(2-(pyrrolidin-1-ylmethyl)pyrrolidine-1-carbonyl)pyridin-2-yl)-1H-pyrazol-4-yl)benzonitrile]	7760 nM
8.17	Cc1cc(C#N)ccc1-c1cnn(-c2ccc(C(=O)N3CC(N4CCCCC4)C3)cn2)c1O [Example 344, 4-(5-hydroxy-1-(5-(3-(piperidin-1-yl)azetidine-1-carbonyl)pyridin-2-yl)-1H-pyrazol-4-yl)-3-methylbenzonitrile]	468 nM
7.87	Cc1cc(C#N)ccc1-c1cnn(-c2ccc(C(=O)N3CC[C@@H]4CN(C)C[C@@H]4C3)cn2)c1O [Example 417, 4-(5-hydroxy-1-(5-((3aR,7aS)-2-methyloctahydro-1H-pyrrolo[3,4-c]pyridine-5-carbonyl)pyridin-2-yl)-1H-pyrazol-4-yl)-3-methylbenzonitrile]	575 nM

Source: patent US10407409B2, “6-(5-hydroxy-1H-pyrazol-1-yl)nicotinamide inhibitors of PHD” (Takeda Pharmaceutical Company Limited, priority 2013, dated 2019)
